Tests used:
[1] = test system: ApoE knockout mice; assay: Blood lipid metabolism TG, TCHO, HDL-c, LDL-c (Example 2); type: in vivo
Excerpt: Methods: A total of 130 SPF grade C57BL/6 ApoE −/− model male mice aged 8 weeks were purchased from Charles River Laboratories (Beijing, China) (animal license number: SCXK (Beijing) 2016-0001, animal qualification certificate No.: 11400700331337). After one week of acclimatization in a SPF-grade animal facility, the animals with less weights were discarded and the rest was randomly divided into 11 groups, with 8 animals in each group. Except for the healthy control group, the rest were fed with 10% high-fat food (the first day of the high-fat diet was recorded as D1). Starting from the 8th week of the high-fat diet, each group of animals was orally given solvents or corresponding drugs, and the volume of administration was 10 ml/kg, once a day for 8 weeks. Animals were observed and administered by gavage once a day and the body weight were measured once a week for 56 days. […] The store solution of the test samples was dissolved in dimethyl sulfoxide solution and prepared with 30% PEG300.
At the end of the experiment, the animals were euthanized by inhalation of carbon dioxide. Blood was taken from the heart, and centrifuged at 3000 r/min at a low temperature centrifuge for 10 min to separate the serum. The levels of total cholesterol TC, triglyceride TG, high-density lipoprotein HDL-C, and low-density lipoprotein LDL-C were measured, and the remaining serum was stored in a refrigerator at −80° C.
Before the start of the experiment, animal blood samples were analyzed for blood lipid metabolism, including conventional triglyceride (TG), total cholesterol (TCHO), high-density lipoprotein (HDL-c) and low-density lipoprotein (LDL-c). After high-fat or ordinary food feeding for 8 weeks, the blood lipid levels were measured again. After the drug treatment was started, blood lipid measurements were performed every four weeks until the end of the experiment.

[2] = test system: atherosclerotic lesions in ApoE knockout mice; assay: Aortic HE and oil red O staining, atherosclerotic lesion scores (Example 1); type: in vivo; details: for Mild n (number of animal cases with mild lesions) / Moderate n (number of animal cases with moderate lesions) / No lesion n (number of animal cases) / Severe n (number of animal cases with severe lesions): of 8 animals; for animals that had atherosclerosis (histological observation): of 8 aortas examined
Excerpt: (§1) Methods: SPF grade C57BL/6 ApoE −/−model mice were provided by Guangdong Medical Experimental Animal Center, laboratory animal production license No. SOCK (Guangdong) 2013-0002. Laboratory animal quality certificate number: 44007200048196). Mice were half male and half female, aged 8 to 12 weeks, and 72 animals in total. After four weeks of housing in a SPF-level animal facility, animals with less body weights were disposed. A total of 64 animals were randomly divided into 8 groups, 8 in each group, fed with 10% high-fat food, and received with different treatments. Animals were observed and administered with the medicines by gavage once daily. The body weights were measured once a week and continued for 58 days. […] The test sample was dissolved in dimethyl sulfoxide solution and prepared with 30% PEG300.
(§2) After blood collection, the animals were sacrificed, and the aortic arch together with the heart and thoracic aorta were fixed with neutral formaldehyde and subject to pathological examination. The abdominal aorta was collected and quick-frozen in liquid nitrogen, and stored at −80° C.
a) HE staining: aortic arch was sliced and HE stained. The plaques were observed under optical microscope.
b) Oil red O staining: aortic arch was sliced and oil red O stained. The plaques were observed under optical microscope.

[3] = test system: VCAM-1; assay: Immunohistochemistry of aortic wall, VCAM-1; type: in vivo, mice; details: for aorta (VCAM-1) signal expression in blood vessels: IHC-P×400, single animal micrograph; for VCAM-1 average optical density: aortic wall
Excerpt: as §1, §2
(§3) c) Immunohistochemistry: The thoracic aorta was sliced and detected by immunohistochemistry for the expression of CD68, intercellular adhesion molecule-1 (ICAM-1), and vascular cell adhesion Molecule-1 (VCAM-1).

[4] = test system: CD68; assay: Immunohistochemistry of aortic wall, CD68; type: in vivo, mice; details: for aorta (CD68) signal expression in blood vessels: IHC-P×400, single animal micrograph; for CD68 average optical density: aortic wall
Excerpt: as §1, §2, §3

[5] = test system: ApoE knockout mice; assay: Four blood lipids in serum of ApoE knockout mice (Example 1); type: in vivo; details: for HDL-C / LDL-C / TC / TG: serum
Excerpt: as §1
At the end of the experiment, animals were anesthetized with pentobarbital sodium. Blood was collected from the orbital venous plexus, and centrifuged at 3000 r/min at a low temperature for 10 min to separate the serum. The levels of total cholesterol TC, triglyceride TG, high-density lipoprotein HDL-C, and low-density lipoprotein LDL-C were measured, and the remaining serum was stored in a refrigerator at −80° C.
Statistical analysis: Data were expressed as the mean plus or minus the standard deviation (x± s), and analyzed by SPSS21.0 statistical software. […] The level of test is α=0.05.

[6] = half male and female, 2 mg/kg body weight
[7] = half male and female, 5 mg/kg body weight
[8] = half male and female, 10 mg/kg body weight
[9] = ♀, 2 mg/kg gavage QD, 58 days, 2 mg/kg
[10] = ♀, 2 mg/kg gavage QD, 58 days, listed as Nib1, 2 mg/kg
[11] = ♀, 10 mg/kg gavage QD, 58 days, 10 mg/kg
[12] = ♀, 10 mg/kg gavage QD, 58 days, listed as Nib1, 10 mg/kg

O=c1[nH]c2ccccc2n1C1CCN(CCCC(c2ccc(F)cc2)c2ccc(F)cc2)CC1 [Sample A]
effect on high-density lipoprotein (HDL-c) level compared with the vehicle group [1]: significantly reduce
effect on low-density lipoprotein (LDL-c) level compared with the vehicle group [1]: significantly reduce
effect on total cholesterol (TCHO) level compared with the vehicle group [1]: significantly reduce
effect on triglyceride (TG) level compared with the vehicle group [1]: significantly reduce
formation of arterial plaque (pathological results) ([2]; medium doses, preventive treatment): could delay the formation of arterial plaque in ApoE knockout mice to a certain extent
Mild n (number of animal cases with mild lesions) ([2]; 2 mg/kg body weight): 4
Moderate n (number of animal cases with moderate lesions) ([2]; 2 mg/kg body weight): 0
No lesion n (number of animal cases) ([2]; 2 mg/kg body weight): 1
Severe n (number of animal cases with severe lesions) ([2]; 2 mg/kg body weight): 3
Mild n (number of animal cases with mild lesions) ([2]; 5 mg/kg body weight): 5
Moderate n (number of animal cases with moderate lesions) ([2]; 5 mg/kg body weight): 0
No lesion n (number of animal cases) ([2]; 5 mg/kg body weight): 3
Severe n (number of animal cases with severe lesions) ([2]; 5 mg/kg body weight): 0
Mild n (number of animal cases with mild lesions) ([2]; 10 mg/kg body weight): 1
Moderate n (number of animal cases with moderate lesions) ([2]; 10 mg/kg body weight): 2
No lesion n (number of animal cases) ([2]; 10 mg/kg body weight): 2
Severe n (number of animal cases with severe lesions) ([2]; 10 mg/kg body weight): 3
animals that had atherosclerosis (histological observation) ([2]; 2 mg/kg): 7 cases
animals that had atherosclerosis (histological observation) ([2]; 5 mg/kg): 5 cases
animals that had atherosclerosis (histological observation) ([2]; 10 mg/kg): 6 cases
effect on atherosclerotic lesions compared with the statin group ([2]; overall, aortic pathology Example 1): equivalent to or better than that of the statin group
Scores (atherosclerotic lesion score, average of the group) ([2]; score 0-3 per Table 8, 2 mg/kg body weight): 1.62 ± 1.19
Scores (atherosclerotic lesion score, average of the group) ([2]; score 0-3 per Table 8, 5 mg/kg body weight): 0.62 ± 0.52
Scores (atherosclerotic lesion score, average of the group) ([2]; score 0-3 per Table 8, 5 mg/kg body weight, listed as sample A): lower than the model control group
Scores (atherosclerotic lesion score, average of the group) ([2]; score 0-3 per Table 8, 10 mg/kg body weight): 1.75 ± 1.28
aorta (VCAM-1) signal expression in blood vessels ([3]; 2 mg/kg): low to medium
aorta (VCAM-1) signal expression in blood vessels ([3]; 5 mg/kg): low to medium
aorta (VCAM-1) signal expression in blood vessels ([3]; 10 mg/kg): low to medium
VCAM-1 average optical density ([3]; 2 mg/kg gavage QD): 1.41 ± 0.34 ×10^−2
VCAM-1 average optical density ([3]; 5 mg/kg gavage QD, 5 mg/kg): 0.77 ± 0.46 ×10^−2
VCAM-1 average optical density ([3]; 5 mg/kg gavage QD, listed as Nib1, 5 mg/kg): reduced expression
VCAM-1 average optical density ([3]; 5 mg/kg gavage QD, listed as sample A, 5 mg/kg): lower than the model control group
VCAM-1 average optical density ([3]; 10 mg/kg gavage QD, 10 mg/kg): 0.49 ± 0.51 ×10^−2
VCAM-1 average optical density ([3]; 10 mg/kg gavage QD, listed as sample A, 10 mg/kg): lower than the model control group
aorta (CD68) signal expression in blood vessels ([4]; 2 mg/kg): low to medium
aorta (CD68) signal expression in blood vessels ([4]; 5 mg/kg): low to medium
aorta (CD68) signal expression in blood vessels ([4]; 10 mg/kg): low to medium
CD68 average optical density ([4]; 2 mg/kg gavage QD): 2.78 ± 2.01 ×10^−2
CD68 average optical density ([4]; 5 mg/kg gavage QD): 1.39 ± 0.67 ×10^−2
CD68 average optical density ([4]; 10 mg/kg gavage QD): 1.86 ± 1.60 ×10^−2
regulation on blood lipid levels (overall) ([5]; Example 1, overall): have the effect of improving blood lipids
HDL-C [5, 6]: 1.80 ± 0.62 mmol/L
LDL-C [5, 6]: 6.23 ± 2.86 mmol/L
TC [5, 6]: 19.86 ± 6.92 mmol/L
TG [5, 6]: 1.18 ± 0.70 mmol/L
LDL-C [5, 7]: 6.09 ± 2.12 mmol/L
TC [5, 7]: 20.87 ± 6.13 mmol/L
TG [5, 7]: 0.82 ± 0.17 mmol/L
HDL-C ([5]; half male and female, 5 mg/kg body weight, 5 mg/kg): 1.63 ± 0.28 mmol/L
HDL-C ([5]; half male and female, 5 mg/kg body weight, listed as sample A, 5 mg/kg): lower
LDL-C [5, 8]: 5.82 ± 2.13 mmol/L
TC [5, 8]: 19.85 ± 6.26 mmol/L
TG [5, 8]: 0.89 ± 0.20 mmol/L
HDL-C ([5]; half male and female, 10 mg/kg body weight, 10 mg/kg): 1.62 ± 0.35 mmol/L
HDL-C ([5]; half male and female, 10 mg/kg body weight, listed as sample A, 10 mg/kg): lower
TG ([5]; ♀, 2 mg/kg gavage QD, 58 days): 0.86 ± 0.16 mmol/L
LDL-C [5, 9]: 3.86 ± 0.95 mmol/L
TC [5, 9]: 13.88 ± 1.77 mmol/L
LDL-C [5, 10]: decreased
TC [5, 10]: decreased
LDL-C ([5]; ♀, 5 mg/kg gavage QD, 58 days): 4.30 ± 0.39 mmol/L
TC ([5]; ♀, 5 mg/kg gavage QD, 58 days): 15.41 ± 1.32 mmol/L
TG ([5]; ♀, 5 mg/kg gavage QD, 58 days): 0.70 ± 0.11 mmol/L
TG ([5]; ♀, 10 mg/kg gavage QD, 58 days): 0.76 ± 0.07 mmol/L
LDL-C [5, 11]: 3.86 ± 0.38 mmol/L
TC [5, 11]: 14.07 ± 0.64 mmol/L
LDL-C [5, 12]: decreased
TC [5, 12]: decreased
HDL-C ([5]; ♂, 2 mg/kg gavage QD, 58 days): 2.26 ± 0.54 mmol/L
LDL-C ([5]; ♂, 2 mg/kg gavage QD, 58 days): 8.60 ± 1.79 mmol/L
TC ([5]; ♂, 2 mg/kg gavage QD, 58 days): 25.84 ± 3.63 mmol/L
TG ([5]; ♂, 2 mg/kg gavage QD, 58 days): 1.51 ± 0.92 mmol/L
HDL-C ([5]; ♂, 5 mg/kg gavage QD, 58 days): 1.83 ± 0.24 mmol/L
LDL-C ([5]; ♂, 5 mg/kg gavage QD, 58 days): 7.87 ± 1.38 mmol/L
TC ([5]; ♂, 5 mg/kg gavage QD, 58 days): 26.34 ± 2.50 mmol/L
TG ([5]; ♂, 5 mg/kg gavage QD, 58 days): 0.94 ± 0.15 mmol/L
HDL-C ([5]; ♂, 10 mg/kg gavage QD, 58 days): 1.92 ± 0.18 mmol/L
LDL-C ([5]; ♂, 10 mg/kg gavage QD, 58 days): 7.78 ± 0.40 mmol/L
TC ([5]; ♂, 10 mg/kg gavage QD, 58 days): 25.64 ± 1.32 mmol/L
TG ([5]; ♂, 10 mg/kg gavage QD, 58 days): 1.02 ± 0.22 mmol/L

— US20220202801A1, “USE OF COMPOUND IN PREPARATION OF DRUG FOR TREATING ATHEROSCLEROSIS” (GenEros Biopharma Ltd., priority 2019, published 2022)
